Earlier results, collected in patent US6268341A, “Expression of urokinase plasminogen activator inhibitors” (Chiron Corporation, priority 1998, dated 2001).
Where no end group is shown, it is not given here. Fuc = fucose (fucosylation)

How the values were obtained:
[1] = tested on: osteosarcoma cell line, SaOS-2; conditions: Rabbani et al.
uPAR = uPAR (Homo sapiens, UniProt Q03405); conditions: Appella et al., J Biol Chem 1987
Chain of uPAR (Q03405 23-335): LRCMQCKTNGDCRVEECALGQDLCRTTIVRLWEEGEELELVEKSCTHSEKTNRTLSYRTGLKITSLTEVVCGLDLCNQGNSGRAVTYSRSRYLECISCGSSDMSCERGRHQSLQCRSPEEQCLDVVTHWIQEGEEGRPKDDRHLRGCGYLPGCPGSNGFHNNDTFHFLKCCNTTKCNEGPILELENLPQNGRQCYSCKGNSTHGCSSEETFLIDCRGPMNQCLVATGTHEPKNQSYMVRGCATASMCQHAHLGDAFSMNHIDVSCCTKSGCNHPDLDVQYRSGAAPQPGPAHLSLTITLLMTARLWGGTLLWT

affinity relative to intact ATF (fold less) (uPAR)	Substance	mitogenic activity [1]
	fucosylated EGF-like domain: fucosylated EGF-like domain (uPA4-43, produced by cleavage from prouPA) (LHQVPSNCDCLNGGT(Fuc)CVSNKYFSNIHWCNCPKKFGGQHCE; cysteine pairing not given here; UniProt P00749 24-63, looked up, fragment)	mitogenic
about 100 fold	uPA12-32: critical receptor-binding domain alone, residues 12-32 of uPA (DCLNGGTCVSNKYFSNIHWCN; UniProt P00749 32-52, looked up, fragment)	
